According to article PMC10298982, “Stability Characterization of the Novel Anti-Cancer HM-10/10 HDL-Mimetic Peptide” (International Journal of Molecular Sciences, 2023):

Experiments:
[1] = tested on: beagle dog plasma proteins; settings: 2.5 h, 2 µM, pH 7.4
in vitro [2] = settings: Sprague-Dawley, rat, plasma, pH 7.4
in vitro [3] = settings: beagle, dog, plasma, pH 7.4
[4] = tested on: cynomolgus monkey plasma proteins; settings: 2.5 h, 2 µM, pH 7.4
[5] = tested on: Sprague-Dawley rat plasma proteins; settings: 2.5 h, 2 µM, pH 7.4
in vitro [6] = settings: cynomolgus monkey, plasma, pH 7.4
in vitro [7] = settings: CD-1, mouse, plasma

In the case of CC(=O)CC(c1ccccc1)c1c(O)c2ccccc2oc1=O (stereo not shown) [Warfarin], the “% Protein Free Mean ± SD” value [1] is reported as 3.1 ± 0.4%, the remaining at 2.5 h, 2 µM (in vitro [2]) is reported as 105% and the fraction unbound at 2.5 h, 2 µM (in vitro [3]) is reported as 0.0305 ± 0.0036. The remaining at 2.5 h, 2 µM (in vitro [3]) was 105%, the “% Protein Free Mean ± SD” value [4] was 0.9 ± 0.1% and the “% Protein Free Mean ± SD” value [5] was 0.7 ± 0.1%. It also gave a fraction unbound at 2.5 h, 2 µM (in vitro [6]) of 0.0086 ± 0.00116, a remaining at 2.5 h, 2 µM (in vitro [7]; pH 7.4) of 108% and a fraction unbound at 2.5 h, 2 µM (in vitro [7]; pH 7.4, % Protein Free Mean ± SD) of 0.04 ± 0.002. The fraction unbound at 2.5 h, 2 µM (in vitro [7]; pH 7.4, Fu (Unbound Fraction) Mean ± SD) was 0.0398 ± 0.0016.
